Columns and labels:
[1] = molecular target: T1, His-tagged recombinant human PPARγ ligand binding domain (Homo sapiens, UniProt P37231); experiment: CNBr-bead conjugation (pull-down) assay, hPPARγ-LBD; conditions: CNBr-coupled drug, positive control rosiglitazone, FIG. 2
T1 construct: made in house; host or cells: E. coli (DE3, Rosetta)
T1 sequence (P37231 238-503 limits assumed): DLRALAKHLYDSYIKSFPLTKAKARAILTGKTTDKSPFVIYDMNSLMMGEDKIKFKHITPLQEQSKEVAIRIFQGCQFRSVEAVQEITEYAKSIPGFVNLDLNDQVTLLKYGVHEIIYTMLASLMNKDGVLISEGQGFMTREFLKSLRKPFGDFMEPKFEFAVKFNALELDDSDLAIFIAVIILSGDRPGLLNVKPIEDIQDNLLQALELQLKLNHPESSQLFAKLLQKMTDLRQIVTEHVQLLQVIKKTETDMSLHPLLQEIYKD
Procedure: (§1) A compound of the present invention represented by Chemical Formula 1 was synthesized by DAEJUNG Chemicals & Metals (Gyeonggi-do, Korea) (indicated as ‘D6’ in the drawing). WY14643, GW501516, and rosiglitazone were purchased from Sigma-Aldrich (St. Louis, MO, USA). The compounds were dissolved in dimethyl sulfoxide (DMSO), diluted in a culture solution, and used in the experiment. Cyanogen bromide (CNBr)-activated Sepharose 4B was purchased from Sigma-Aldrich (St. Louis, MO, USA). His-tagged recombinant human PPAR-ligand binding domain (LBD) was expressed in E. coli (DE3, Rosetta) and then purified and used. A His antibody was purchased from Cell Signaling Technology (Danvers, Massachusetts, USA). 3-Isobutyl-1-methylxanthine (IBMX), dexamethasone, bovine pancreatic insulin, and Oil Red O were purchased from Sigma-Aldrich (St. Louis, MO, USA). A PRO-PREP™ Protein Extraction Solution was purchased from iNtRON Biotechnology (iNtRON Biotech., Korea). […]
(§2) 100 mg of CNBr-activated Sepharose 4B was added to an e-tube, and then the beads were activated by rotating with 1 ml of 1 mM HCl for 10 minutes at room temperature. […] Each e-tube was added with the drug and rotated overnight at 4° C., at which time the concentration was measured to be 20 μM. […] The supernatant was completely removed, and the pellet was detected by Western blotting. […]

[2] = molecular target: T2, His-tagged recombinant human PPARα ligand binding domain (Homo sapiens, UniProt Q07869); experiment: CNBr-bead conjugation (pull-down) assay, hPPARα-LBD; conditions: CNBr-coupled drug, positive control WY14643, FIG. 2
T2 construct: made in house; host or cells: E. coli (DE3, Rosetta)
T2 sequence (Q07869 239-466 limits assumed): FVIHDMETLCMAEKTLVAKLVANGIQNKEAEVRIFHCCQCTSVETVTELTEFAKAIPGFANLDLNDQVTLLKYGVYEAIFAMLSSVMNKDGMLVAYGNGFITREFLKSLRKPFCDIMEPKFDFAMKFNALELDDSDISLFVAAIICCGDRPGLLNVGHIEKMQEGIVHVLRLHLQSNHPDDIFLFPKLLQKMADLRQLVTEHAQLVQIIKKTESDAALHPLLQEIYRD
Procedure: as §1, §2

PPARα = molecular target: T3, PPARα (Homo sapiens, UniProt Q07869); experiment: Gal4 trans-activated luciferase reporter assay, PPARα-LBD, HEK293; assay type: cell-based; conditions: HEK293, drug treatment 24 hours, FIG. 1
T3 construct: three types of pcDNA5-GAL4 and pGALRE-luc containing PPARα-LBD, PPARβ/δ-LBD, or PPARγ-LBD; GAL4 (fusion partner from vector pcDNA5-GAL4); expressed in transfected cells; host or cells: HEK293
T3 sequence (Q07869 239-466 limits assumed): T2 sequence (Q07869 239-466 limits assumed)
Procedure: A plasmid was transformed into E. coli (DE3, Rosetta) and transfected into HEK293 cells and used. Referring to known literatures such as Kanno, Y. & Inouye, Y. J Toxicol Sci 35, 515-525 (2010), Zhao, S. et al. J Nat Prod 79, 879-885 (2016), etc., luciferase assay was performed on three types of pcDNA5-GAL4 and pGALRE-luc containing PPARα-LBD, PPARβ/δ-LBD, or PPARγ-LBD. pProEX-PPAR and pET-28a were used for purification of His-tagged recombinant hPPAR-LBD protein.
A HEK293 cell line was cultured in Dulbecco's Modified Eagle Medium (DMEM) containing 10% Fetal Bovine Serum (FBS) and 1% penicillin-streptomycin (P/S). […]
Transfected HEK293 cells were treated with a drug and after 24 hours, the cells were collected, resuspended in a luciferase lysis buffer (Promega, Madison, Wisconsin, USA), and incubated on ice for 10 minutes. […] Next, Firefly Luciferase (Fluc) and Renilla Luciferase (Rluc) activities were measured using the Dual Luciferase Reporter Assay System (Promega, Madison, Wisconsin, USA). […]
To confirm whether a compound represented by Chemical Formula 1 was a PPAR agonist, Gal4 trans-activated luciferase assay was performed. Specifically, HEK293 cells were transfected with the Gal4-luciferase reporter systems of PPARα, PPARβ/δ, and PPARγ, respectively, harvested after drug treatment for 24 hours, and then analyzed by Dual-Luciferase assay. […]

relative luciferase activity (Fluc to Rluc) for PPARα (PPARα): dose-dependently increased
Compound: COc1ccc(-c2cc(=O)oc3c(C)c(OC(=O)[C@H](Cc4c[nH]c5ccccc45)NC(=O)OC(C)(C)C)ccc23)cc1 [Chemical Formula 1, [4-(4-methoxyphenyl)-8-methyl-2-oxochromen-7-yl] (2S)-3-(1H-indol-3-yl)-2-[(2-methylpropan-2-yl)oxycarbonylamino]propanoate]
conjugation (binding) to hPPARγ-LBD, Western blotting [1]: as much potently as a PPAR agonist used as a positive control
conjugation (binding) to hPPARα-LBD, Western blotting [2]: as much potently as a PPAR agonist used as a positive control

Reference: patent US20260027083A1, “USE OF PPAR AGONIST FOR IMPROVEMENT OF ENERGY METABOLISM” (NOVMETAPHARMA CO., LTD., priority 2022, published 2026)
